System: C57BL6 mice
Experiment: in vivo toxicity in mice, ip daily for 4 days
Conditions: ip daily × 4, MTD = >10% body weight loss
Excerpt: Highlighted are the compounds being made for antitumor testing.

SMILES: COC[C@H]1OC(=O)c2coc3c2[C@@]1(C)C1=C(C3=O)[C@@H]2CCC(=O)[C@@]2(C)C[C@H]1OC(C)=O [wortmannin, reference compound]
- Maximum tolerated dose mg/kg ip qD × 4: 2.5 mg/kg

Source: patent publication US7335679B2 (Arizona Board of Regents on behalf of the University of …, priority 2001, dated 2008)
